These are literature values, as cited in patent EP3156049A1, “PHARMACEUTICAL COMPOSITION OF PRASUGREL” (Alembic Pharmaceuticals Limited, priority 2015, dated 2017).

Like-named read-outs stand apart in the source and are kept apart here.

As for `CC(=O)Oc1cc2c(s1)CCN(C(C(=O)C1CC1)c1ccccc1F)C2.Cl` (racemic) [Prasugrel hydrochloride, 5-[(1RS)-2-cyclopropyl-1-(2-fluorophenyl)-2-oxoethyl]-4,5,6,7-tetrahydrothieno [3,2-c] pyridin-2-yl acetate hydrochloride], the Solubility entry (pH 2) is reported as “soluble”, the Solubility entry (pH 3 to 4) is recorded as “slightly soluble” and the Solubility entry (pH 6 to 7.5) is reported as “practically insoluble”.
